Calls of active or inactive are those of the source.
Assays:
[1] = target: NAD-dependent protein deacylase sirtuin-5, mitochondrial (Homo sapiens, UniProt Q9NXA8); assay: SIRT5 desuccinylase inhibitors, dose response, biochemical, fluorescence imaging, cherry-pick, set 5 (AID 720591);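 further: desuccinylation of succinyl peptide AMC substrate read as fluorescence after trypsin release; potency of inhibitors that lower fluorescence and may act on trypsin instead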
[2] = target: E3 ubiquitin-protein ligase Mdm2 (Homo sapiens, UniProt Q00987); assay: enhancers of MDM2-luciferase reporter signal, concentration-effect titration, project on inhibitors of MDM2 ubiquitin ligase, cellular assay, luminescent readout, 384-well plate format (AID 1394); type: functional;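 further: MDM2 E3 inhibitors raise luminescence so EC50 is for signal enhancement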
[3] = Artemis endonuclease inhibitor potency, dose response, biochemical, fluorescence intensity (AID 720701); type: functional;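 further: Artemis endonuclease enzyme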
Vero = Vero cell cytotoxicity, cytotoxicity control for flavivirus capping enzyme inhibitors (AID 588742); type: functional; details: Chlorocebus sabaeus
[4] = target: T1, Apoptotic protease-activating factor 1 (Homo sapiens, UniProt O14727); type: functional
T1 sequence (O14727 whole entry): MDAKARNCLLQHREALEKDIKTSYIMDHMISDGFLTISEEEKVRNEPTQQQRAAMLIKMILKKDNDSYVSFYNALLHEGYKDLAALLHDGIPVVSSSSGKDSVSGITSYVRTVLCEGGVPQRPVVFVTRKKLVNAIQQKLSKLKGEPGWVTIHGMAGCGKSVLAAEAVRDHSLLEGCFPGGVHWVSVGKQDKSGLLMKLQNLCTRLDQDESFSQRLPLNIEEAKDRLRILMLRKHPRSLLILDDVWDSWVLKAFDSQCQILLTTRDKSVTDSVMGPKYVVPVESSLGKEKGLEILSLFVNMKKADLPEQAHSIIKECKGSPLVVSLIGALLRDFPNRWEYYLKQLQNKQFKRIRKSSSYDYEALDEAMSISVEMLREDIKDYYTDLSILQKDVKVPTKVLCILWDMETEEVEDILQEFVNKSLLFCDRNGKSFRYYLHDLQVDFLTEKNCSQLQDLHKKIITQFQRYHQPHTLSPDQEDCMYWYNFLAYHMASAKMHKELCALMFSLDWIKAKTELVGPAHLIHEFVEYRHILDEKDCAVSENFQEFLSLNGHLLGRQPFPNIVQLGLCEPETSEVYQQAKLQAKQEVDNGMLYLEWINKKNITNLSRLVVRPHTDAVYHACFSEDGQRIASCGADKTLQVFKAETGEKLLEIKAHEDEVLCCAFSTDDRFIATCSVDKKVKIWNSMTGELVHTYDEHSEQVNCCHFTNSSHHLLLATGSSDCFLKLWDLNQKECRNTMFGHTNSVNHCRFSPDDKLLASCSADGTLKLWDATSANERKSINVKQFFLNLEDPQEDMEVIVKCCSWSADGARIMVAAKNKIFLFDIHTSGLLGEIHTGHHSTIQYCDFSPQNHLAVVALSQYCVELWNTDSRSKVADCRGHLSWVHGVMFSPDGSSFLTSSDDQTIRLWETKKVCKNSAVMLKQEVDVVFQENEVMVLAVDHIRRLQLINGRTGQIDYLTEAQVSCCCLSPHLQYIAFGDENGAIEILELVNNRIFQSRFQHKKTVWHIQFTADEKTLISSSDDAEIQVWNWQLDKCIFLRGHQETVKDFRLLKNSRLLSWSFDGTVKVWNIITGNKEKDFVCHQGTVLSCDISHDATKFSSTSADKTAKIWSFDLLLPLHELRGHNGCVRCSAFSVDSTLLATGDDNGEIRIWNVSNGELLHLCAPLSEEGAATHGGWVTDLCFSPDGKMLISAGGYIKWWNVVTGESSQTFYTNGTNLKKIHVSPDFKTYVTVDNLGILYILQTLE

[5] = target: Induced myeloid leukemia cell differentiation protein Mcl-1 (Homo sapiens, UniProt Q07820); type: functional
[6] = P. falciparum Dd2 growth inhibitors, dose response, SYBR Green, cherry-picked samples (AID 1159567); type: functional, cell-based
[7] = HepG2 cell cytotoxicity, dose response, cytotoxicity control, cherry-picked samples (AID 1159577); type: functional, cell-based
Major prion protein = Major prion protein (Homo sapiens, UniProt P04156); type: functional, cell-based
[8] = target: Disintegrin and metalloproteinase domain-containing protein 17 (Homo sapiens, UniProt P78536); assay: ADAM17 protease inhibitors, dose response, counter-screen for ADAM10 exosite inhibitor project, biochemical, quenched FRET substrate (AID 743253)
[9] = tested on: Streptococcus sp. 'group A'; assay: growth inhibition of control SK(-) GAS strain, dose response, counter-screen for streptokinase expression inhibitor project, luminescence, kanamycin, BacTiterGlo, confirmation (AID 1900); type: functional, organism-based
Streptokinase A = target: T2, Streptokinase A (Streptococcus pyogenes serotype M1, UniProt P10520); assay: S. pyogenes streptokinase expression inhibitors, potency, dose response, plasminogen activation absorbance, OD405 (AID 1914); type: functional, Streptococcus pyogenes M1 GAS;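 further: secreted streptokinase activity via plasminogen activation per viability signal from cell pellet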
T2 sequence (P10520 whole entry): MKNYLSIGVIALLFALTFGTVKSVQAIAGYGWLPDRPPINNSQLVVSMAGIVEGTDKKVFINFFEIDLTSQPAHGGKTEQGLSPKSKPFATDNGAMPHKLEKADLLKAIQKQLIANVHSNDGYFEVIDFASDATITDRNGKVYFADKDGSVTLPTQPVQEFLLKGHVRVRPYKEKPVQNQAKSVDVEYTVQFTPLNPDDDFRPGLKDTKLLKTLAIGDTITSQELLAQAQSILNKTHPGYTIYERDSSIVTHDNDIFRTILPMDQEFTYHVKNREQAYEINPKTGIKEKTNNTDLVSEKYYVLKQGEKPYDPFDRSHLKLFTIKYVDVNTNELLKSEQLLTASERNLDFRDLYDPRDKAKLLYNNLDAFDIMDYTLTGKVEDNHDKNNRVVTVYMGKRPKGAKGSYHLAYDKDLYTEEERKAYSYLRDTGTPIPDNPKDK

[10] = growth suppression of beta-catenin-knockout colon cells, dose response, cell-based, HCT116, human colon tumor (AID 1045); type: functional;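 further: HCT116 colon tumor cells with beta catenin knocked out; cells exposed to compound for 60 hours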
[11] = growth suppression of PTEN-null colon cells, dose response, cell-based, HCT116 PTEN knockout (AID 1047); type: functional;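 further: HCT116 colon tumor cells with PTEN knocked out; cells exposed to compound for 60 hours before readout; potency for loss of cell viability measured by luminescence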
Protein skinhead-1 = target: T3, Protein skinhead-1 (Caenorhabditis elegans, UniProt P34707); type: functional
T3 sequence (P34707 whole entry): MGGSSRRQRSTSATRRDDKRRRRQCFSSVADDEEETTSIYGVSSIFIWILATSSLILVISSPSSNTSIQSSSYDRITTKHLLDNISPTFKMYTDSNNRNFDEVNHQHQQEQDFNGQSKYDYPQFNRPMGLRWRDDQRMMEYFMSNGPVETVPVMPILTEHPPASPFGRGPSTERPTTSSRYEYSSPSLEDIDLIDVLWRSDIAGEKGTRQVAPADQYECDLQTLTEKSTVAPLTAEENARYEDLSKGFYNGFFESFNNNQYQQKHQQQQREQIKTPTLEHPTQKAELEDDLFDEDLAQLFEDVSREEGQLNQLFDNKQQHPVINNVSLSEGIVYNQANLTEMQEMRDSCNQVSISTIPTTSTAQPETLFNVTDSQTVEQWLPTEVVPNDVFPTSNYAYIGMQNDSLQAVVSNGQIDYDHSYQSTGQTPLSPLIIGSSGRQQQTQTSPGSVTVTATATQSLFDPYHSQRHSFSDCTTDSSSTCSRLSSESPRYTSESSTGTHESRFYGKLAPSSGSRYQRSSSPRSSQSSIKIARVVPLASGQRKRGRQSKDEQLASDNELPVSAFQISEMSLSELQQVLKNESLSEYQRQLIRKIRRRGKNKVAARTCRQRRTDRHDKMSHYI

Streptococcus = assay: Group A Streptococcus viability loss, dose response, counter-screen for streptokinase expression inhibitor project, luminescence, BacTiterGlo (AID 1915); type: functional, organism-based;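 further: potency for reduction of bacterial viability or growth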
Cytochrome P450 1A2 = target: T4, Cytochrome P450 1A2 (Homo sapiens, UniProt P05177);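 further: PubChem cytochrome P450 panel assay, CYP1A2 panel member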
T4 sequence (P05177 whole entry): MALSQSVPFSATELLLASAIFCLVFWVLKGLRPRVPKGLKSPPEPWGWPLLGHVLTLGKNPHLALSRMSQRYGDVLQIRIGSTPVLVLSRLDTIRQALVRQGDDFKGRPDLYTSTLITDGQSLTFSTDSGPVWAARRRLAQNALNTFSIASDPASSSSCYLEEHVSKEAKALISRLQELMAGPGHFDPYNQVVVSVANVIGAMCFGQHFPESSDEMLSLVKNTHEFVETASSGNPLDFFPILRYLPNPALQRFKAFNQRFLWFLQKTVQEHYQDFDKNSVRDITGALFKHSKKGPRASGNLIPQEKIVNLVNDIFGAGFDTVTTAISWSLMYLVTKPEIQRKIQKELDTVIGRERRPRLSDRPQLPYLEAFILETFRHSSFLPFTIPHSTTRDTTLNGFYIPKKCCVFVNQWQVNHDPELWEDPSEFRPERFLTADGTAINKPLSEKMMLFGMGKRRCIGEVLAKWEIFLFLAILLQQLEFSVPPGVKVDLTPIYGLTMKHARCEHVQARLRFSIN

[12] = target: T5, Mannose-6-phosphate isomerase (Homo sapiens, UniProt P34949); assay: human PMI inhibitors, high substrate, primary screen, biochemical, fluorescence intensity, high mannose 6-phosphate (AID 1220)
T5 sequence (P34949 whole entry): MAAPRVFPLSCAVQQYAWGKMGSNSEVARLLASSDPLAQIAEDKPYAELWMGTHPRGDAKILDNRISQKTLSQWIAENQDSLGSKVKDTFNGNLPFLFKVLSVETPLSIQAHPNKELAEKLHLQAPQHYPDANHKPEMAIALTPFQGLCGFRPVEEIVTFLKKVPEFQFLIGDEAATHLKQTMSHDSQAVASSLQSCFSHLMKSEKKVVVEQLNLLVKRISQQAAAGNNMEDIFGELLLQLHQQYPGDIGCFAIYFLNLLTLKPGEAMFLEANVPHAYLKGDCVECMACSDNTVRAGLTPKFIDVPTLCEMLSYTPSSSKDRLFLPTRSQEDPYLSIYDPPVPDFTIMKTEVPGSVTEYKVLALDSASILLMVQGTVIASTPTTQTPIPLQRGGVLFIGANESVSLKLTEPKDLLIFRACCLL

[13] = cytotoxicity in OVCAR8 ovarian cancer cells, dose response, PAX8 project, cell-based, plate reader, dry powder samples (AID 743197); type: functional; details: OVCAR-8
[14] = A2780 ovarian cancer cell cytotoxicity, dose response, cytotoxicity control, plate reader, dry powder samples (AID 743046); type: functional, cell-based
Paired box protein Pax-8 = Paired box protein Pax-8 (Homo sapiens, UniProt Q06710); assay: inhibitors of PAX8-driven TPO luciferase reporter, dose response, RMG-I cells, cherry-pick (AID 687027); type: functional, cell-based;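 further: luciferase reporter driven by Pax8 target thyroperoxidase promoter measured by SteadyGlo luminescence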
HEK293 = assay: inhibitors of LMP1-driven NF-kB reporter, dose response, cell-based, HEK293, luciferase, cherry-pick (AID 588343); type: functional; details: Homo sapiens

Compound: NS(=O)(=O)c1cnccc1Nc1ccc(Cl)cc1
- AC50 [1]: > 30 µM (inactive)

Compound: C=CCN(c1cccc(C(F)(F)F)c1)S(=O)(=O)c1cccc(C(=O)OCC(=O)NCCC)c1
- EC50 [2]: 277 µM (not active)

Compound: Cc1ccc(N=Nc2c(N)nn3c(O)cc(-c4ccccc4)nc23)cc1
- IC50 [3]: 16.9 µM (active)
- CC50 (Vero): 25.1 µM (active)
- IC50 [4]: 13.8 µM (active)
- IC50 [5]: 12.9 µM (active)

Compound: CCCNC(=O)N1CC2(CCN(Cc3cccc(OC)c3)CC2)c2c(n(C)c3cc(OC)ccc23)[C@@H]1CO
- AC50 [6]: 4.94 µM (active)
- AC50 [7]: 21.1 µM (active)

Compound: COC(=O)CSc1ncnc2scc(-c3ccccc3)c12
- IC50 (Major prion protein): 5.59 µM (active)
- IC50 (cells): > 138 µM (inactive)

Compound: Cn1nc(C(F)(F)F)c(/C=N/OC(=O)c2ccccc2Cl)c1SCc1ccccc1Cl
- IC50 (Major prion protein): 4.68 µM (active)
- IC50 (cells): > 138 µM (inactive)

Compound: COc1ccccc1NC(=O)N1CCCCN2[C@H](CO)[C@H](c3ccc(C#Cc4ccccc4)cc3)[C@H]2C1
- AC50 [6]: 1.03 µM (active)
- AC50 [7]: 8.11 µM (active)

Compound: COc1ccc(S(=O)(=O)Nc2cc3c4c(oc3c3ccccc23)CC(C)(C)CC4=O)cc1
- IC50 [8]: > 69.5 µM (inactive)
- EC50 [9]: 9.62 µM (active)
- EC50 (Streptokinase A): 97 µM (active)
- EC50 [10]: 26.6 µM (active)
- EC50 [11]: 20.1 µM (active)
- IC50 (Protein skinhead-1): > 100 µM (inactive)
- EC50 (Streptococcus): 78.6 µM (active)

Compound: Brc1c(NC2=NCCN2)ccc2nccnc12 [BRIMONIDINE]
- AC50 (Cytochrome P450 1A2): 39.8 µM (inconclusive)
- IC50 [12]: > 50 µM (not active)

Compound: CCOc1cccc(C(=O)NC(=S)Nc2ccc(N3CCCC3)cc2)c1
- IC50 [3]: > 20 µM (inactive)

Compound: C[C@@H]1CN([C@@H](C)CO)C(=O)c2cc(NC(=O)Nc3ccc(C(F)(F)F)cc3)ccc2O[C@@H](C)CCCCO[C@H]1CN(C)C(=O)c1ccccc1
- AC50 [13]: > 70 µM (inactive)
- AC50 [14]: 54.3 µM (active)
- AC50 (Paired box protein Pax-8): 5.18 µM (active)

Compound: C[C@H](CO)N1C[C@H](C)[C@@H](CN(C)Cc2ccc(Cl)c(Cl)c2)OCCCC[C@H](C)Oc2ccc(NS(=O)(=O)c3ccc(F)cc3)cc2C1=O
- AC50 [13]: > 70 µM (inactive)
- AC50 [14]: 49.6 µM (active)
- AC50 (Paired box protein Pax-8): 15.6 µM (active)

Compound: Oc1nc2cc3c(cc2cc1CN(Cc1cccnc1)C(S)=NCc1ccco1)OCCO3
- IC50 [12]: > 50 µM (not active)

Compound: C[C@@H]1C=CCCO[C@]12C(=O)N(Cc1ccccc1C(F)(F)F)c1ccccc12
- AC50 [1]: > 30 µM (inactive)

Compound: O=C(NC1CCCCC1)C(c1cccnc1)N(C(=O)c1ccc(Cl)nc1)C1CCCCC1 (configuration not stated)
- EC50 [2]: 12.7 µM (not active)

Compound: O=C(C1=C(O)C(=O)N(CCN2CCOCC2)C1c1cccc(Br)c1)c1cc2ccccc2o1 (configuration not stated)
- IC50 (Major prion protein): 3.22 µM (active)
- IC50 (cells): > 138 µM (inactive)

Compound: CC(Sc1nc(-c2ccc(F)cc2)cs1)C(=O)N1c2ccccc2CC1C (configuration not stated)
- AC50 (HEK293): 117 µM (active)
- AC50 [1]: > 30 µM (inactive)

Source: ChEMBL document CHEMBL1201862, “PubChem BioAssay data set” (2004)
